The record followed here is ChEMBL document CHEMBL1127210, “Synthesis of 5-glycosylamino pyrimidines. A new class of compounds with potential anti-aids activity” (Bioorg Med Chem Lett, 1993).

pEC50, pIC50: −log10 of the molar value. Bounds are passed on as bounds.

What is called pEC50 is the negative decadic logarithm of the EC50, by convention in mol/L. The term pIC50 denotes the negative decadic logarithm of the IC50, by convention in mol/L. Low values mean a large IC50, high ones a small IC50.

Data set [1] deals with CCRF-CEM. Nature of the data set: (§1) In vitro inhibitory activity against HIV infected T4 lymphocytes (CEM cell line). Type of data set: functional, cell-based. As to conditions: Homo sapiens.
The nature of data set [2]: Therapeutic index (IC50/EC50) was determined.
Data set [3] concerns CCRF-CEM. Described as §1. The data set is classed as functional, cell-based, Homo sapiens.
The subject of data set [4] is CCRF-CEM. Nature of the data set: Tested for in vitro anti HIV activity against T4 lymphocytes (CEM cell lines) and effective concentration was reported. Type of data set: functional, cell-based. The conditions noted are these: Homo sapiens.

Compound `COc1nc(N)c(NC2O[C@H](CO)[C@@H](O)[C@H]2O)c(=O)n1C` (some centres undefined) gave a pEC50 in data set [1] of 4.19. In addition, in data set [2], the selectivity ratio was greater than 13. In addition, the pIC50 in data set [3] (Homo sapiens, CCRF-CEM) was less than 3.08. In data set [4], `COc1nc(N)c(NC2O[C@H](CO)[C@H](O)[C@H]2O)c(=O)n1C` (some centres undefined) showed a pEC50 of 3.85. In addition, the selectivity ratio in data set [2] is greater than 1.6. Moreover, the negative logarithm of the IC50 (pIC50) in data set [3] (Homo sapiens, CCRF-CEM) is 3.66. In the case of `COc1nc(N[C@H]2OC[C@@H](O)[C@H](O)[C@H]2O)c(NC2O[C@@H](CO)[C@@H](O)[C@@H]2O)c(=O)n1C` (some centres undefined), the pIC50 in data set [3] (Homo sapiens, CCRF-CEM) was less than 3.24. In data set [3] (ccrf-cem), `COc1nc2nc(C(O)C(O)CO)cnc2c(=O)n1C` (stereo in doubt; 10) gave a pIC50 of less than 3.05. Regarding `COc1nc2nc(C(O)C(O)CO)cnc2c(=O)n1C` (stereo in doubt; 11), the pIC50 in data set [3] (ccrf-cem) was less than 3.66.
